# From PubChem BioAssay AID1361 (SRMLSC, 2008)
# Calls of active or inactive are those of the source. No rule for the calls is given here.
# Experiment: blockers of mitochondrial fusion, WT vs mutant – cell-based, chemical genetic, wild-type and mutant, confirmation (AID 1361)
# Conditions: Cell-based mitochondrial fusion phenotype, imaging
# [1] = mutant cells, measured here: mutant cell line IC50
Compound,IC50 (WT cells),IC50 [1] [µM]
O=C(COC(=O)c1ccccc1C(=O)c1ccc(Cl)c([N+](=O)[O-])c1)NC1CCCCCC1,> 25 µM (inactive),> 25
COc1ccc(C2N(c3ccc(Cl)cc3)N=C(C(C)=O)N(C)N2C(C)=O)cc1 (centres undefined),15.8 µM,> 25
CCc1c(C)nc2[nH]nc(-c3ccccc3)n2c1=O,> 25 µM (inactive),> 25
COc1ccccc1C1(CCNS(=O)(=O)c2ccc(C)cc2)CCOC(C(C)C)C1 (centres undefined),21 µM,> 25
Cc1sc(NC(=O)CSc2nnnn2C2CCCCC2)c(C#N)c1C,> 25 µM (inactive),> 25
c1csc(C(c2nnnn2C2CCCC2)N2CCCC3(CCCCC3)C2)c1 (centres undefined),4.94 µM,> 25
COc1cc(Nc2nc(-c3ccccc3)c3cc(C)ccc3n2)cc(OC)c1OC,10.6 µM,> 25
CCc1cccc(CC)c1NC(=S)NCCc1c(C)[nH]c2ccccc12,19.8 µM,> 25
Cc1ccc(-n2cccc2C(=S)N=P(N(C)C)(N(C)C)N(C)C)cc1,9.32 µM,> 25
Cc1cc(C)n(-c2nc(C)nc3c2cnn3-c2ccccc2)n1,> 25 µM (inactive),> 25
COc1ccccc1Cn1c(/C=C/c2ccccc2)nc2ccccc21,9.02 µM (inactive),8.43
Cc1ccc(C(C(=O)NC2CCCC2)N(C(=O)Cc2cccs2)c2ccc(C)c(C)c2)o1 (centres undefined),22.4 µM,> 25
COC(=O)Cc1ccc(N(Cc2ccccc2F)S(=O)(=O)c2ccc(C)cc2)cc1,3.34 µM,> 25
CC(=O)N(Cc1ccc(F)cc1)C1=C(NCCc2ccccc2)C(=O)c2ccccc2C1=O,24 µM,> 25

# The next lines start with the values.
IC50 (WT cells),IC50 [1] [µM],Compound
> 25 µM (inactive),> 25,Fc1cccc(-c2cc3nc4c(c(N5CCC6(CC5)OCCO6)n3n2)CCCC4)c1
> 25 µM (inactive),> 25,CN1C(=S)SC(C)(C)C1(C)NO (centres undefined)
12 µM,> 25,CCOc1ccc(C(C(=O)NC2CCCC2)N(Cc2ccccc2)C(=O)c2nsc(Cl)c2Cl)cc1 (centres undefined)
1.71 µM,4.04,CC1(c2ccc([N+](=O)[O-])cc2)CC(C)(C)N(C(=O)c2ccccc2)c2ccccc21 (centres undefined)
> 25 µM (inactive),21.8,CN1/C(=C\C=Nc2ccc3ccccc3c2)C(C)(C)c2ccccc21
> 25 µM (inactive),> 25,Nc1c(C(=O)NC2CCCC2)sc2nc(-c3cccs3)ccc12
> 25 µM (inactive),> 25,O=C(NCc1ccccc1)c1ccc(C(=O)N(C2CCCCC2)C2CCCCC2)cc1
7.88 µM,14.2,Cc1cc(Br)c(OCc2ccc(C(=O)N/N=C3\CC4CC=CC34)cc2)c(Br)c1 (centres undefined)
> 25 µM (inactive),> 25,O=C(c1ccc(Cl)c(Cl)c1)c1cnc(Nc2ccccc2)s1
> 25 µM (inactive),> 25,Cc1ccc(NC(=O)C2SC(=Nc3ccccc3)C(C(=O)Nc3ccc(Cl)cc3)=C2N)cc1 (centres undefined)
16.4 µM,21.7,COc1ccc(NC(=O)c2ccc(-c3ccccc3C(F)(F)F)o2)cc1
20.2 µM,> 25,COc1ccc(C(=O)N(Cc2nc(-c3ccc(C)cc3)no2)C2CCCCC2)cc1OC
12.8 µM,22,CN(C)S(=O)(=O)c1ccc(C(=O)Nc2nnc(-c3ccc4c(c3)CCCC4)o2)cc1
> 25 µM (inactive),> 25,CCOC(=O)c1c(C)[nH]c(C(=O)OCC(=O)Nc2cc(Cl)ccc2OC)c1C
11.3 µM,21.9,CCCOC(=O)c1ccc(Oc2cn[nH]c2-c2ccc(OC)cc2O)cc1
> 25 µM (inactive),> 25,FC(F)(F)c1cnc(Sc2nc3nccc(-c4ccc(Cl)cc4)n3n2)c(Cl)c1
> 25 µM (inactive),> 25,CCCc1c(C)[nH]c2ccc(NC(C)=O)cc2c1=O
> 25 µM (inactive),> 25,CCCC1(CCC)NC(=O)N(CC(=O)Nc2cccc(OC)c2)C1=O
